Assay results published in ChEMBL document CHEMBL5230114, “Current development of CFTR potentiators in the last decade” (Eur J Med Chem, 2020).

Legend:
[1] = test system: Cystic fibrosis transmembrane conductance regulator (Homo sapiens), P13569 [F508del]; test: Potentiation of CD4-HRP tagged CFTR F508del mutant NBD1 (unknown origin) expressed in MDCK cells assessed as increase in chloride current by measuring fold increase in luminescence signal incubated for 24 hrs relative to control; type: cell-based; details: filed as activator
Sequence of Cystic fibrosis transmembrane conductance regulator (Homo sapiens), P13569 [F508del] (P13569 as listed by the source): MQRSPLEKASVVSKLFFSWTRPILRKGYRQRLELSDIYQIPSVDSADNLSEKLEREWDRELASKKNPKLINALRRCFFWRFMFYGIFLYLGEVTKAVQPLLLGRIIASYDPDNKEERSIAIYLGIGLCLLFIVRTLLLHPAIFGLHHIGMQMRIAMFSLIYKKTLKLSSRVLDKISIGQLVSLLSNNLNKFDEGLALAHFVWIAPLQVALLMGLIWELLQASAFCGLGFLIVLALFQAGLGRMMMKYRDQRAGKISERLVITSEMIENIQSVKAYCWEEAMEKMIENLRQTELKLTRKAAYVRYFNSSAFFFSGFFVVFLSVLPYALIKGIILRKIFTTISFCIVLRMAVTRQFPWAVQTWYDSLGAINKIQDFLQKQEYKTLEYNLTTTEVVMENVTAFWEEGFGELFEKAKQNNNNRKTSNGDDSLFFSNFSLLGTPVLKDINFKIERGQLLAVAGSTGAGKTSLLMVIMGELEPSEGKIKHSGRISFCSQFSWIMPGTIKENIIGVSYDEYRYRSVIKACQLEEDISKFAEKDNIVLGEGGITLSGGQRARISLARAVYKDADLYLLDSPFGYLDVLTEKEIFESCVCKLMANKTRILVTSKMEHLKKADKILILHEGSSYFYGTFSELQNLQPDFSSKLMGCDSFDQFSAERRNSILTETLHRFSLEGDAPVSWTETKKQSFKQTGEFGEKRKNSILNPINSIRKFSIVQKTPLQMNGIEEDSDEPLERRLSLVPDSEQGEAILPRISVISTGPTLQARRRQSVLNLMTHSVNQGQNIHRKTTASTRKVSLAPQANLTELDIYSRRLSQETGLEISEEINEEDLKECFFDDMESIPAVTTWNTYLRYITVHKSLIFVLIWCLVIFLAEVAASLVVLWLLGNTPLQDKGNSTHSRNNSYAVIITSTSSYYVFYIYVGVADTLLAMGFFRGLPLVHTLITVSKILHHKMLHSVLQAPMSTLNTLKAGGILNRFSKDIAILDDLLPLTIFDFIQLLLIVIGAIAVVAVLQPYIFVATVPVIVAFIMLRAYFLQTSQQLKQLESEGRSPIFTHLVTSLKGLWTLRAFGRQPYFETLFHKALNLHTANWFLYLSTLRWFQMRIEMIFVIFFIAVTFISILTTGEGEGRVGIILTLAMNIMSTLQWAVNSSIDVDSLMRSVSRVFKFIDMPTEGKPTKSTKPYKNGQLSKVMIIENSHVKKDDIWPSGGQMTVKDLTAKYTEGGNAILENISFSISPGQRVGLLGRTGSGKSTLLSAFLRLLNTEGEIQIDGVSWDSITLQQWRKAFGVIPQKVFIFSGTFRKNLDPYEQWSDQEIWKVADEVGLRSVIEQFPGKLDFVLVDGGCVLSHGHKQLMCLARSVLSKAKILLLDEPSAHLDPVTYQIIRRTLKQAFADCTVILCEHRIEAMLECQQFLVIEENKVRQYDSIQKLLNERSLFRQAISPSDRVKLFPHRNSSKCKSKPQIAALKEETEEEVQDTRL

[2] = target: Cystic fibrosis transmembrane conductance regulator (Homo sapiens, UniProt P13569, W1282X); test: Potentiation of CFTR W1282X mutant (unknown origin) expressed in rat FRT cells; type: cell-based
[3] = test system: Cystic fibrosis transmembrane conductance regulator (Rattus norvegicus), P34158 [UNDEFINED MUTATION]; test: Potency index, ratio of genistein EC50 to test compound EC50 for potentiation of CFTR F508del mutant in rat FRT cells assessed as increase in iodide influx in presence of forskolin; type: cell-based
Sequence of Cystic fibrosis transmembrane conductance regulator (Rattus norvegicus), P34158 [UNDEFINED MUTATION] (P34158 whole entry, looked up, stated change not applied): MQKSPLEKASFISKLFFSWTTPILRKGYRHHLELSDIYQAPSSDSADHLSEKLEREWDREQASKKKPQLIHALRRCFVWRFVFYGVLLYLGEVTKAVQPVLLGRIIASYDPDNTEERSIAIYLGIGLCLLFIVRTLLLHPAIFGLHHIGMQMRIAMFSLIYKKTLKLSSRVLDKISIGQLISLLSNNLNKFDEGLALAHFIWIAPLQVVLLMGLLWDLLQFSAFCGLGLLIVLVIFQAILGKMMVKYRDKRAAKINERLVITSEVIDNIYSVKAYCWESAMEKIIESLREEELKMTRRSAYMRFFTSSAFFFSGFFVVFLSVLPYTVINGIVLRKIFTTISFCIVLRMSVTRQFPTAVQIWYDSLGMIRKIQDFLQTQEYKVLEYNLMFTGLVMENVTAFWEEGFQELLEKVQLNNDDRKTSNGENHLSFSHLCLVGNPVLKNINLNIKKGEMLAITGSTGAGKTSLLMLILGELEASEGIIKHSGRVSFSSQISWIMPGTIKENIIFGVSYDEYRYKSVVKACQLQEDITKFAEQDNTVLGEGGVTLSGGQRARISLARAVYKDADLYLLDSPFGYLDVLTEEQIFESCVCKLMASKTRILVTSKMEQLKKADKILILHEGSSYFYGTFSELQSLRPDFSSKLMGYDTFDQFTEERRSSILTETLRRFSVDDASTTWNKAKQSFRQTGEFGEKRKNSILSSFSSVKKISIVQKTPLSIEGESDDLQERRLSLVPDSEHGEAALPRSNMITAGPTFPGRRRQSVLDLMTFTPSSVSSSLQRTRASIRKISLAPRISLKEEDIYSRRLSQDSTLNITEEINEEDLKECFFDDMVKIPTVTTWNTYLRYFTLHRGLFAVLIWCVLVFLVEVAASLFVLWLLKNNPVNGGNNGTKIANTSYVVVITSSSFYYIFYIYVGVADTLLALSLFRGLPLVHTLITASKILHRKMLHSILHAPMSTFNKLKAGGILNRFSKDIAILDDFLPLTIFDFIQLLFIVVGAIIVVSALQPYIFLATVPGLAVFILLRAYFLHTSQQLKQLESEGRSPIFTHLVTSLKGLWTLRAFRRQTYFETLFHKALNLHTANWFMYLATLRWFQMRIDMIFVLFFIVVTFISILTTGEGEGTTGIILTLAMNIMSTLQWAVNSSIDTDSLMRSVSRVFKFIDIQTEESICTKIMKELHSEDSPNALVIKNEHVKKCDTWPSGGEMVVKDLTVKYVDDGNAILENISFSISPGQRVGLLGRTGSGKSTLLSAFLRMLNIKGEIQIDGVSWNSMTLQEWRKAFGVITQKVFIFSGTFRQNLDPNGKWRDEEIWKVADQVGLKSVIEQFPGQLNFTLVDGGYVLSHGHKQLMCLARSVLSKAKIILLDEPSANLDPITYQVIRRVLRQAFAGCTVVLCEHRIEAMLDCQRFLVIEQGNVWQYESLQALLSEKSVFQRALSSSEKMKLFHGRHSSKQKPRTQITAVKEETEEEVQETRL

[4] = target: Cystic fibrosis transmembrane conductance regulator (Rattus norvegicus, UniProt P34158, F508DEL); test: Potentiation of CFTR F508del mutant in rat FRT cells assessed as increase in iodide influx in presence of forskolin; type: cell-based
Sequence of Cystic fibrosis transmembrane conductance regulator (Rattus norvegicus, UniProt P34158, F508DEL) (P34158 whole entry F508del, looked up): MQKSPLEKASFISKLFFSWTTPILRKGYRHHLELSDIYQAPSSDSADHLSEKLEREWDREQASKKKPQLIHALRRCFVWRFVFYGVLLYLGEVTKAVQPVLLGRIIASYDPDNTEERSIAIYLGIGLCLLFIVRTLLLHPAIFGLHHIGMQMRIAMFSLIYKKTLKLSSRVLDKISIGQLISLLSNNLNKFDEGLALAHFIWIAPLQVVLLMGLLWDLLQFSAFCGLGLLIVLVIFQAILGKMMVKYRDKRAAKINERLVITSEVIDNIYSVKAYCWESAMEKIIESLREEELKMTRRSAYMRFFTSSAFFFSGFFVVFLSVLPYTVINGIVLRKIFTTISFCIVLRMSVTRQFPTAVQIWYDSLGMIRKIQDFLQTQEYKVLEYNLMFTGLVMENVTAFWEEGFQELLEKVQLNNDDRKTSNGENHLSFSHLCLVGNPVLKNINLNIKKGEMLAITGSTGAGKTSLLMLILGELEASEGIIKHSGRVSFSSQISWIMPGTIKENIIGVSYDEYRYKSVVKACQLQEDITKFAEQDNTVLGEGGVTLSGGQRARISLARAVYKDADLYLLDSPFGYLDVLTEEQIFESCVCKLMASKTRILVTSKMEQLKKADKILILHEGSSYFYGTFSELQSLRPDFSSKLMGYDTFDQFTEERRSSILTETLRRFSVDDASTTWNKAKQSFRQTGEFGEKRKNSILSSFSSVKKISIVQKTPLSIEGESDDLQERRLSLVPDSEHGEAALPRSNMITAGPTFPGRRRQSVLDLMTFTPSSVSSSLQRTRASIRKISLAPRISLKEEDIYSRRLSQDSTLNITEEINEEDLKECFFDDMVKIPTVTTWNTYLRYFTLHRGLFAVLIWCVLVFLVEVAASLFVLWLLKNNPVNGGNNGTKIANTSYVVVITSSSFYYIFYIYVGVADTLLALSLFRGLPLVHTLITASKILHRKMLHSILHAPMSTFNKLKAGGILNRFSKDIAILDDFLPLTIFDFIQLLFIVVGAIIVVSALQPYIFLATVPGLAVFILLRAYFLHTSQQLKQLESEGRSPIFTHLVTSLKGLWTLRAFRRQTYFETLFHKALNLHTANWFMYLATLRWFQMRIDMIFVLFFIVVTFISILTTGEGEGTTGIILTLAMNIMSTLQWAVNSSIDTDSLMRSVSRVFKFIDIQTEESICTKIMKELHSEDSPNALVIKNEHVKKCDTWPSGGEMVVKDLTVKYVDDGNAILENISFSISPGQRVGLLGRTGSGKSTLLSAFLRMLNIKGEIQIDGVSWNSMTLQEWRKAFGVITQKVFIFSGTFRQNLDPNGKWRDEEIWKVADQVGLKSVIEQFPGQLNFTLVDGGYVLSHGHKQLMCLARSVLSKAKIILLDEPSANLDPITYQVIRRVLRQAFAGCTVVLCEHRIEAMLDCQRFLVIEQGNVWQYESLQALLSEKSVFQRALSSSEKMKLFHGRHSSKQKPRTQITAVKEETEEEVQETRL

[5] = target: Cystic fibrosis transmembrane conductance regulator (Homo sapiens, UniProt P13569, F508DEL); test: Potentiation of CFTR F508del mutant activity (unknown origin)
Sequence of Cystic fibrosis transmembrane conductance regulator (Homo sapiens, UniProt P13569, F508DEL) (P13569 as listed by the source): as the sequence (P13569 as listed by the source) above

[6] = test system: Cystic fibrosis transmembrane conductance regulator (Homo sapiens), P13569 [F508del]; test: Potentiation of CFTR F508del mutant (unknown origin) expressed in rat FRT cells assessed as increase in chloride current by measuring maximal effect at 30 uM in presence of forskolin relative to control; type: cell-based; details: filed as activator

SMILES | fold change (FC) [1] | EC50 [2] | other results
COc1cc(CNC(=O)c2sc3ccccc3c2OC)cc(OC)c1 | 1.7 |  | 
CCc1ccc(NS(=O)(=O)c2cn(Cc3ccccn3)c3ncccc23)cc1 |  | 600 nM | 
CC(C)c1ccc(NC(=O)C(c2ccccc2)N(C)C(=O)Cc2c[nH]c3ccccc23)cc1 (stereo unspecified) |  |  | Ratio EC50 [3]: 100; EC50 [4]: 70 nM
COc1c(C(=O)NCc2ccccc2Br)sc2ccccc12 | 2.4 |  | 
CCc1ccc(NS(=O)(=O)c2cn(Cc3ccccc3C#N)c3ncccc23)cc1 |  | 700 nM | 
CN(C(=O)Cc1c[nH]c2ccccc12)[C@H](C(=O)Nc1ccc(F)cc1)c1ccccc1 |  |  | EC50 [5]: 90 nM
CN(C(=O)Cc1c[nH]c2ccccc12)[C@H](C(=O)Nc1ccc(-n2cc(CCCF)nn2)cc1)c1ccccc1 |  |  | EC50 [5]: 1100 nM
CCCCCn1cc(S(=O)(=O)Nc2ccc(CC)cc2)c2cccnc21 |  | 1000 nM | 
COc1c(C(=O)NCc2ccc(F)cc2Cl)sc2ccccc12 | 2 |  | 
COc1ccc(CNC(=O)c2sc3ccc(Cl)cc3c2OC)c(OC)c1 |  |  | Activity [6]: 50%
